ChEMBL document CHEMBL1201862, “PubChem BioAssay data set” (2004)
Calls of active or inactive are those of the source.

Experiments:
[1] = molecular target: T1, Corticotropin-releasing factor receptor 2/Corticotropin-releasing factor-binding protein (Homo sapiens, UniProt P24387+Q13324); assay: Dose Response confirmation of uHTS hits for small molecule antagonists of the CRF-binding protein and CRF-R2 receptor complex.; type: functional; conditions: read-out: IC50_Mean
T1 sequence (Q13324 whole entry): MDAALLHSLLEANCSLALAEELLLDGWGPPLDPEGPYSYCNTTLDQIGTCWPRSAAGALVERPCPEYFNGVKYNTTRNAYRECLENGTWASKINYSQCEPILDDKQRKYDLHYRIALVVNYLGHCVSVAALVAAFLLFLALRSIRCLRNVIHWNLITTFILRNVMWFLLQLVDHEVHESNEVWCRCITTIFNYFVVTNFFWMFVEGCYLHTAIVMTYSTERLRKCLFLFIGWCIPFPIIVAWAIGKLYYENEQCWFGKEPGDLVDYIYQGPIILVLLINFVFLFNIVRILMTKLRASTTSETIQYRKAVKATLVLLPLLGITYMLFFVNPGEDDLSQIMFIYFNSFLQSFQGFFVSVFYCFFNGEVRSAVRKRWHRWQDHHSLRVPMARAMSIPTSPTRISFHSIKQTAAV
T1 sequence (P24387 whole entry): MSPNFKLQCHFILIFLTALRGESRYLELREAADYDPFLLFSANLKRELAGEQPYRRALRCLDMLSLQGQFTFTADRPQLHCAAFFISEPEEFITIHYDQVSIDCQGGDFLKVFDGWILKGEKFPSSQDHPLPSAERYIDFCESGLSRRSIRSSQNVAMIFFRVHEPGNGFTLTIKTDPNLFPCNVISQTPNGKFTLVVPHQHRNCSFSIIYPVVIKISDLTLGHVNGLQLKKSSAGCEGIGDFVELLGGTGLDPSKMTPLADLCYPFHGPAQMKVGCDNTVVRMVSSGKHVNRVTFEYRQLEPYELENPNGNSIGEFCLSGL

[2] = molecular target: T1, Corticotropin-releasing factor receptor 2/Corticotropin-releasing factor-binding protein; assay: activators of CRF receptor 2 with binding protein – uHTS hits, confirmation (AID 602473); type: functional; conditions: read-out: EC50_Mean
[3] = CRF-BP/CRF-R2 complex antagonists, dose response, cell-based, uHTS hits, 384-well (AID 651639); type: functional, Homo sapiens; conditions: read-out: IC50_Mean
Cytochrome P450 2D6 = Cytochrome P450 2D6 (Homo sapiens, UniProt P10635);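 further: CYP2D6 member of a cytochrome P450 panel assay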
Chain of Cytochrome P450 2D6 (P10635 whole entry): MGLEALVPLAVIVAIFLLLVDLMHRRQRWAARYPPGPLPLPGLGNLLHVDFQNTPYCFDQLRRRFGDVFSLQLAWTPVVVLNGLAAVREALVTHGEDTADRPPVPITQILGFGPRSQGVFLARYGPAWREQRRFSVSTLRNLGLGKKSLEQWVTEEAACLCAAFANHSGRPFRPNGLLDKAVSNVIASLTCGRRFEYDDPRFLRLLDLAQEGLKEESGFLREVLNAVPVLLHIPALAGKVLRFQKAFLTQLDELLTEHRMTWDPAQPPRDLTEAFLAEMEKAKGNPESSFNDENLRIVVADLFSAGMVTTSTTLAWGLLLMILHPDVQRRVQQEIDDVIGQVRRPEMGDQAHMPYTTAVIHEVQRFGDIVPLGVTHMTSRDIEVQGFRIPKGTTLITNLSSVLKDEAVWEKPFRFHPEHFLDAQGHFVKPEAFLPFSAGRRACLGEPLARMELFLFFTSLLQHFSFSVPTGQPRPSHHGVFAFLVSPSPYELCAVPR

Cytochrome P450 2C9 = Cytochrome P450 2C9 (Homo sapiens, UniProt P11712)
Chain of Cytochrome P450 2C9 (P11712 whole entry): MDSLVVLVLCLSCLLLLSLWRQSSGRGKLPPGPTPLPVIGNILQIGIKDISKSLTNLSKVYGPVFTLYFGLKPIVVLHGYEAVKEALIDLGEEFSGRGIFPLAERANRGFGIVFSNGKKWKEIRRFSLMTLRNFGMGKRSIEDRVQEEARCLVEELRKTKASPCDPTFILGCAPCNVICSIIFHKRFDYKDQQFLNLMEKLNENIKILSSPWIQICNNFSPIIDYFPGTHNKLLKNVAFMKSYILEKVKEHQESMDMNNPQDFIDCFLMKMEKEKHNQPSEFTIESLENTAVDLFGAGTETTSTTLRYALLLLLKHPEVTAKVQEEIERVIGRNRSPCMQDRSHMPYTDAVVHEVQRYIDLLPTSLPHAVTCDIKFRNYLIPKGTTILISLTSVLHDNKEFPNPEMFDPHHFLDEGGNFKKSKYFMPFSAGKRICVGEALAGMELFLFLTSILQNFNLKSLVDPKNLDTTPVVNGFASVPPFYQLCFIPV

[4] = molecular target: T2, Adenosylmethionine-8-amino-7-oxononanoate aminotransferase (Mycobacterium tuberculosis, UniProt P9WQ81); assay: Mycobacterium tuberculosis BioA enzyme inhibitor Measured in Biochemical System Using Plate Reader - 2163-02_Inhibitor_Dose_CherryPick_Activity.; type: functional, Mycobacterium tuberculosis UT205
T2 sequence (P9WQ81 whole entry): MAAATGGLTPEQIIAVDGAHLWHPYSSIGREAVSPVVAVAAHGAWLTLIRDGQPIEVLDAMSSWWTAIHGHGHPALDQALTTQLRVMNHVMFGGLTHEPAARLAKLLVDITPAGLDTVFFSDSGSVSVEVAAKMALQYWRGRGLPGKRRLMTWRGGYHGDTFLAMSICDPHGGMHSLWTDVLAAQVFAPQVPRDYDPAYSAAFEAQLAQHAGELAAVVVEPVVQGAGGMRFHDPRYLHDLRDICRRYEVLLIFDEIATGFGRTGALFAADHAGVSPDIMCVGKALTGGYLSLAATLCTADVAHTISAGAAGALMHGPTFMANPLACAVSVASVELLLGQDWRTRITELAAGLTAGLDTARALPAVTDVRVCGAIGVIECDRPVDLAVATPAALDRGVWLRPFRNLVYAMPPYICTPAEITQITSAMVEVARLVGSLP

[5] = molecular target: FAD-linked sulfhydryl oxidase ALR (Homo sapiens, UniProt P55789); assay: inhibitors of human ALR sulfhydryl oxidase, dose response, biochemical, H2O2 detection, luminescence, cherry-pick (AID 493248)
Chain of FAD-linked sulfhydryl oxidase ALR (P55789 whole entry): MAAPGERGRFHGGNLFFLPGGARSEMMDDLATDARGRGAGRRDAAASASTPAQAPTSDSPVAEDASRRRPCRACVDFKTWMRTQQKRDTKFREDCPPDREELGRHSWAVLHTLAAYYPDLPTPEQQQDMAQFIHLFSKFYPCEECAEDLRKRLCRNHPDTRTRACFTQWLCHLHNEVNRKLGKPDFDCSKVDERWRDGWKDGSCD

[6] = molecular target: T3, Long-chain-fatty-acid--AMP ligase FadD28 (Mycobacterium tuberculosis, UniProt P9WQ59); assay: Fluorescence polarization aasay to screen for inhibitors that compete for the binding of FadD28 to a bisubstrate Measured in Biochemical System Using Plate Reader - 2147-01_Inhibitor_Dose_CherryPick_Activity.; type: functional, Mycobacterium tuberculosis H37Rv
T3 sequence (P9WQ59 whole entry): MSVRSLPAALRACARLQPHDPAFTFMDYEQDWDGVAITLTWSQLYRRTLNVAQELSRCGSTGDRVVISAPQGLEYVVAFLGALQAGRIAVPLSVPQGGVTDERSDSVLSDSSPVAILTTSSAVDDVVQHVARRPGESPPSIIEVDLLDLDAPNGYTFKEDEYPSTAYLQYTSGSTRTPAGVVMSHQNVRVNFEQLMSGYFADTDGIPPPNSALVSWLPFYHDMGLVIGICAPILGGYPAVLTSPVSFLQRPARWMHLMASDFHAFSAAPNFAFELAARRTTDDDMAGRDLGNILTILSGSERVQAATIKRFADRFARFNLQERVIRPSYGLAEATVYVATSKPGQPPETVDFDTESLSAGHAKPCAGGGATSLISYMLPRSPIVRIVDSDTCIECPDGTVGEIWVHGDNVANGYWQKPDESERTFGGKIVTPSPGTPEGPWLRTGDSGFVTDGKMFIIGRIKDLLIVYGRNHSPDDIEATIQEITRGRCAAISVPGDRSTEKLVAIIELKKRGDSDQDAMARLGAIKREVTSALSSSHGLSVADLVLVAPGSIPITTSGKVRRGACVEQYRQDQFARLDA

Q: Which results are given for `N#Cc1cccc(C(c2nnnn2C2CCCC2)N2CCCCCC2)c1` (configuration not stated)?
A: IC50 [1]: 20.7 µM (active); EC50 [2]: > 53 µM (inactive); IC50 [3]: > 20 µM (inactive); AC50 (Cytochrome P450 2D6): 11.2 µM (inconclusive); AC50 (Cytochrome P450 2C9): 35.5 µM (inconclusive)

Q: For `CCC(c1nnnn1C1CCCC1)N1CCN(Cc2ccccc2)CC1` (configuration not stated), which IC50 [1] is on record?
A: < 0.368 µM (active)

Q: What about the EC50 [2] of the same compound?
A: > 53 µM (inactive)

Q: And the IC50 [3]?
A: > 20 µM (inactive)

Q: With `Cc1cc(C(=O)CSc2nncs2)c(C)n1-c1ccc2c(c1)OCO2` as the compound, how does the AC50 [4] read?
A: 1.67 µM (active)

Q: Which results are given for `COc1ccc(NC2c3ccccc3C(=O)N2c2cccnc2)cc1Cl` (configuration not stated)?
A: AC50 [5]: 4.34 µM (active); AC50 [4]: 4.04 µM (active)

Q: Which results are given for `COC(=O)c1cc(OC)c(OC)cc1NC(=O)c1c(-c2ccccc2)noc1C`?
A: IC50 [1]: 16.2 µM (active); EC50 [2]: > 53 µM (inactive); IC50 [3]: 1.87 µM (active)

Q: For `O=C(COC(=O)c1ccc(O)cc1O)Nc1cccc2ccccc12`, which AC50 [6] is on record?
A: > 100 µM (inactive)

Q: For `CC(=O)N1CC[C@@H]2[C@@H](CO)N(C)c3ccc(-c4cccc(F)c4)cc3[C@@H]21`, which AC50 [4] is on record?
A: 0.832 µM (active)

Q: Which AC50 [4] does the source give for `COc1cc(C(=O)Nc2cccnc2)cc(OC)c1OC` here?
A: 2.14 µM (active)
